Experimental data taken from US8975397B2, “Solid forms” (Hoffmann-La Roche Inc., priority 2011, dated 2015).
Values after ≈ are worked out from the molar mass of the structure shown. “Also recorded” adds a separate entry of the source. Where two headings read alike, the source gives them in different places.

Experiments:
[1] = Thermodynamic stability of polymorphs; assay type: physicochemical
From the text: The term “monotropy” denotes the relationship between two or more crystal forms of the same substance in which the rank order of thermodynamic stabilities of the polymorphs is retained at all temperatures below the melting point.

[2] = Temperature Controlled XRPD / heating: solid form change; assay type: physicochemical; conditions: for solid form changes at elevated temperature: Temperature Controlled XRPD
Description: Temperature Controlled XRPD analyses of Form B show a phase transition to Form A at elevated temperature. In the temperature range 105-135° C. only Form A is present. In the temperature range of 65-95° C. an intermediate state is observed that is characterized by significant changes in peak positions.

[3] = Hygroscopicity (European Pharmacopoeia classification); assay type: physicochemical; conditions: for hygroscopicity: mass increase 0% rH to 90% rH
From the text: The term “hygroscopicity” describes the ability of a solid material to adsorb moisture. The hygroscopicity of a given API is characterized [European Pharmacopoeia—6th Edition (2008), Chapter 5.11) by the increase in mass when the relative humidity is raised from 0% rH to 90% rH: • non-hygroscopic: weight increase Δm<0.2%; • slightly hygroscopic: weight increase 0.2%≦Δm<2.0%; • hygroscopic: weight increase 2.0%≦Δm<15.0%; • very hygroscopic: weight increase Δm≧15.0%; • deliquescent: sufficient water is adsorbed to form a liquid.

[4] = Solid form stability towards humidity and water (storage, Humidity Controlled XRPD); conditions: for relative humidity at which Form B dehydrates into Form E: storage / Humidity Controlled XRPD, monohydrate; for phase change upon storage at 100% rH: ambient temperature (Form C: e.g. 30 days)
Description: Humidity Controlled XRPD analyses were performed in reflection geometry with a Siemens D5000 Diffractometer (Cu radiation source, NiK beta filter, Scintillation detector, angular range 3° to 42° 2Theta, approximately 180 minutes total measurement time per humidity level). The diffractometer is equipped with an MR1 (Materials Research Instruments) humidity chamber. The humidity within the chamber is adjusted with an ANSYCO humidity controller (SYCOS H-HOT).
50 mg of Form B was subjected to dehydration/hydration cycles.

[5] = In vitro dissolution in miniaturized system (SGF, FeSSIF); assay type: physicochemical; conditions: comparison with Form B
Description: FIG. 21 illustrates the mean in vitro dissolution profiles in SGF. Mean in vitro dissolution profiles of micronized powders of Form A (∘), Form B (▾), Form C (▪) and γ-CD inclusion complex (Δ) in SGF at room temperature. Measurements were performed in triplicate (n=3).
FIG. 22 illustrates the mean in vitro dissolution profiles in FeSSIF. Mean in vitro dissolution profiles of micronized powders of Form A (∘), Form B (▾), Form C (▪) and γ-CD inclusion complex (Δ) in FeSSIF at room temperature. Measurements were performed in triplicate (n=3).
The in vitro dissolution studies performed in this work were conducted in a miniaturized system with 100 mL dissolution medium per experiment. In comparison to the 1000 mL vessels of the conventional USP apparatus the experimental set-up that was used here was scaled-down and simplified (magnetic stirring instead of paddles, room temperature instead of 37° C.). […] Simulated gastric fluid (SGF) was prepared with 2 g/L NaCl and 1 g/L Triton® X-100 in 0.1 N HCl. The resulting measured pH of SGF was 1.2.
Oral absorption of a drug compound from a solid dosage form is dependent on dissolution rate and solubility. In the present work the in vitro dissolution of the γ-CD inclusion complex was compared to micronized powders of polymorph Form A, Form B and Form C. […]

[6] = From the text: FIG. 20 illustrates the phase solubility diagram of (1,1-dioxo-1λ^6-thiomorpholin-4-yl)-{6-[3-(4-fluoro-phenyl)-5-methyl-isoxazol-4-ylmethoxy]-pyridin-3-yl}-methanone and γ-CD. The API solubility is shown in [μg/mL].
Phase solubility diagrams are used to characterize complex formation between two compounds and represent the solubility of the API as a function of the cyclodextrin concentration. […] Anal. Chem. Instrum. (1965) 4:117-212] and Brewster [M E. Brewster et al. Adv. Drug Delivery Rev. (2007) 59:645-666] (FIG. 20).
Anal. Chem. Instrum. (1965) 4:117-212]:
[formula] […] The binding constant (K) is a measure of the affinity of the API to enter the relatively apolar cavity of the CD.

[7] = Biopharmaceutical classification system (BCS); assay type: physicochemical
From the text: The compound of formula (I), its manufacture, its pharmacological activity as inverse agonists of the GABA A α5 receptor, and its use for the treatment, prevention and/or delay of progression of various central nervous system (CNS) conditions have been described in WO 2009/071476. […] Res. (1995) 12:413-420].

[8] = Temperature Controlled XRPD of Form B

Cc1onc(-c2ccc(F)cc2)c1COc1ccc(C(=O)N2CCS(=O)(=O)CC2)cn1 [Form A, (1,1-dioxo-1λ^6-thiomorpholin-4-yl)-{6-[3-(4-fluoro-phenyl)-5-methyl-isoxazol-4-ylmethoxy]-pyridin-3-yl}-methanone]
thermodynamic stability of the polymorph [1]: metastable | thermodynamic stability of the polymorph ([1]; listed as form A): only metastable | solid form changes at elevated temperature [2]: do not show solid form changes

Cc1onc(-c2ccc(F)cc2)c1COc1ccc(C(=O)N2CCS(=O)(=O)CC2)cn1 [Form B, (1,1-dioxo-1λ^6-thiomorpholin-4-yl)-{6-[3-(4-fluoro-phenyl)-5-methyl-isoxazol-4-ylmethoxy]-pyridin-3-yl}-methanone monohydrate]
hygroscopicity ([3]; monohydrate): hygroscopic (weight increase 2.0%≦Δm<15.0%) | temperature range in which an intermediate state is observed [2, 8]: 65-95 °C | temperature range in which only Form A is present [2, 8]: 105-135 °C | temperature of transformation into Form A upon heating ([2]; heating): > 100 °C | stability in the presence of humidity ([4]; e.g. at ambient conditions, compared to Form A): substantially increased as compared to Form A | relative humidity at which Form B dehydrates into Form E ([4]; listed as form B): 0 % rH | relative humidity at which Form B dehydrates into Form E [4]: < 5 % rH

Cc1onc(-c2ccc(F)cc2)c1COc1ccc(C(=O)N2CCS(=O)(=O)CC2)cn1 [Form C, (1,1-dioxo-1λ^6-thiomorpholin-4-yl)-{6-[3-(4-fluoro-phenyl)-5-methyl-isoxazol-4-ylmethoxy]-pyridin-3-yl}-methanone]
solubility in simulated gastric fluid (SGF) [5]: considerably improved as compared to Form B | hygroscopicity compared to Form A ([3]; comparison): less hygroscopic than Form A | thermodynamic stability of the polymorph [1]: more stable than Form A; also recorded: most stable polymorph overall | solid form changes at elevated temperature [2]: do not show solid form changes | phase change upon storage at 100% rH [4]: does not induce this phase change | phase change in the presence of water ([4]; suspended state): transforms into Form B

Cc1onc(-c2ccc(F)cc2)c1COc1ccc(C(=O)N2CCS(=O)(=O)CC2)cn1 [Form E, (1,1-dioxo-1λ^6-thiomorpholin-4-yl)-{6-[3-(4-fluoro-phenyl)-5-methyl-isoxazol-4-ylmethoxy]-pyridin-3-yl}-methanone]
relative humidity at which Form E reconverts (rehydrates) into Form B ([4]; exposure to humidity): > 5 % rH

Cc1onc(-c2ccc(F)cc2)c1COc1ccc(C(=O)N2CCS(=O)(=O)CC2)cn1 [amorphous Form, (1,1-dioxo-1λ^6-thiomorpholin-4-yl)-{6-[3-(4-fluoro-phenyl)-5-methyl-isoxazol-4-ylmethoxy]-pyridin-3-yl}-methanone]
hygroscopicity [3]: slightly hygroscopic (weight increase 0.2%≦Δm<2.0%) | phase change upon storage at 100% rH [4]: no phase transformation has been observed

Cc1onc(-c2ccc(F)cc2)c1COc1ccc(C(=O)N2CCS(=O)(=O)CC2)cn1 [compound of formula (I), (1,1-Dioxo-1λ^6-thiomorpholin-4-yl)-{6-[3-(4-fluoro-phenyl)-5-methyl-isoxazol-4-ylmethoxy]-pyridin-3-yl}-methanone]
phase solubility diagram type [6]: BS-type behavior | aqueous solubility ([7]; BCS): low | permeability ([7]; BCS): high | BCS class ([7]; biopharmaceutical classification system): BCS 2

OC[C@H]1O[C@@H]2O[C@H]3[C@H](O)[C@@H](O)[C@@H](O[C@H]4[C@H](O)[C@@H](O)[C@@H](O[C@H]5[C@H](O)[C@@H](O)[C@@H](O[C@H]6[C@H](O)[C@@H](O)[C@@H](O[C@H]7[C@H](O)[C@@H](O)[C@@H](O[C@H]8[C@H](O)[C@@H](O)[C@@H](O[C@H]9[C@H](O)[C@@H](O)[C@@H](O[C@H]1[C@H](O)[C@H]2O)O[C@@H]9CO)O[C@@H]8CO)O[C@@H]7CO)O[C@@H]6CO)O[C@@H]5CO)O[C@@H]4CO)O[C@@H]3CO [γ-cyclodextrin]
solubility limit in aqueous solution [6]: 150 mM (≈ 195 mg/mL)
